Reference: US6962930B1, “Compounds, compositions and method suitable for amelioration of withdrawal syndromes and withdrawal-induced brain damage” (Lohocla Research Corporation, priority 1997, dated 2005)

Experiments:
[1] = molecular target: T1, strychnine-insensitive glycine binding site on the NMDA receptor (Rattus norvegicus, UniProt P35439); assay: [3H]5,7-DCKA binding to rat cortical membranes; settings: 20 nM [3H]5,7-DCKA
T1 construct: from tissue; host or cells: rat cerebral cortex, crude synaptic (buffy coat) membranes
Experimental: Male Sprague-Dawley rats were killed, their brains removed, and their cerebral cortices dissected and binding of [^3H]5,7-dichlorokynurenate ([^3H]5,7-DCKA) assayed. [^3H]5,7-DCKA binding assays were performed in crude synaptic membranes prepared by a modification of the method of Jones, et al., J. Pharmacol. Methods, 21 161–168 (1989) the relevant disclosures of which are incorporated herein by reference. The pelleted “buffy coat”fraction was obtained by centrifugation and frozen at about −80° C. for at least 18 hours. On the day that the binding assays were performed, the pelleted membranes were resuspended in 50 mM HEPES-KOH buffer (pH 7.8) containing 0.08% TRITON® X-100. After stirring for about 30 min at about 4° C., the membranes were pelleted by recentrifugation and then washed twice by resuspension in buffer and centrifugation.
Binding assays were performed in 0.5 ml volume using 150–200 μg of tissue, 20 nM [^3H]5,7-DCKA and 3–300 μM DCUKA or MeO-DCUKA or 1–100 μM DCUK-OMe (all concentrations are final concentrations in 0.6% dimethyl sulfoxide (DMSO)). Incubations were performed for about 45 min at about 4° C. followed by termination by centrifugation. Bound radioactivity was quantitated by liquid scintillation spectroscopy. Non-specific binding was defined with 1 mM glycine.

[2] = molecular target: voltage-sensitive sodium channels; assay: [3H]BTX binding to rat cortical synaptosomes; settings: non-depolarizing conditions, none = no displacement at 100 μM, read-out: IC50 (μM) [3H]BTX binding
[3] = molecular target: T2, NMDA receptor ion channel (Rattus norvegicus, UniProt P35439); assay: [3H]dizocilpine binding to rat cortical membranes; settings: no exogenous glycine; 100 or 300 μM DCUKA, 30 or 100 μM DCUK-OMe; attenuated by 1 μM glycine
T2 construct: from tissue; host or cells: rat cerebral cortex, crude synaptic (buffy coat) membranes
Experimental: [^3H]Dizocilpine (MK-801) binding assays were performed in a volume of 1 ml containing 100–150 μg of tissue, 5 nM [^3H]dizocilpine, 10 μM L-glutamate, 30 μM MgSO4, and 100 or 300 μM DCUKA or 30 or 100 μM DCUK-OMe, in 10 mM HEPES-KOH buffer (pH 7.4 at 23° C.). Incubations were for 30 minutes at room temperature. The reaction mixtures were filtered over GF/B filters presoaked in 0.1% polyethyleneimine. Bound radioactivity was quantitated by liquid scintillation spectroscopy. Non-specific binding was defined with 20 μM dizocilpine. Under these conditions, [^3H]dizocilpine binding can be used as a measure of the activation of the NMDA receptor ion channel by glycine. See, for example, Wong, E. H. F., et al.,“ GLYCINE MODULATES [^3H]MK-801BINDING TO THE NMDA RECEPTOR IN RAT BRAIN.” Eur. J. Pharmacol., 142 487–488 (1987).
The results obtained are plotted in FIG. 2 where open bars indicate no glycine added and hatched bars indicate 1 μM glycine added to the incubation. Data were statistically analyzed by 2-way analysis of variance (ANOVA) followed by Tukey test. In FIG. 2, * denotes P<0.05 compared to the zero concentration of DCUKA or DCUK-OMe within a given glycine condition, while ** denotes P<0.05 compared to the 0 glycine condition at a given concentration of DCUKA or DCUK-OMe. […]

RSM (μl) sodium channels = molecular target: T3, RSM (μl) sodium channels (Rattus norvegicus, UniProt P15390); assay: Sodium currents, whole cell patch clamp in CHO cells; assay type: cell-based; settings: held at −100 mV, successive depolarizations
T3 construct: expressed in transfected cells
T3 sequence (P15390 whole entry): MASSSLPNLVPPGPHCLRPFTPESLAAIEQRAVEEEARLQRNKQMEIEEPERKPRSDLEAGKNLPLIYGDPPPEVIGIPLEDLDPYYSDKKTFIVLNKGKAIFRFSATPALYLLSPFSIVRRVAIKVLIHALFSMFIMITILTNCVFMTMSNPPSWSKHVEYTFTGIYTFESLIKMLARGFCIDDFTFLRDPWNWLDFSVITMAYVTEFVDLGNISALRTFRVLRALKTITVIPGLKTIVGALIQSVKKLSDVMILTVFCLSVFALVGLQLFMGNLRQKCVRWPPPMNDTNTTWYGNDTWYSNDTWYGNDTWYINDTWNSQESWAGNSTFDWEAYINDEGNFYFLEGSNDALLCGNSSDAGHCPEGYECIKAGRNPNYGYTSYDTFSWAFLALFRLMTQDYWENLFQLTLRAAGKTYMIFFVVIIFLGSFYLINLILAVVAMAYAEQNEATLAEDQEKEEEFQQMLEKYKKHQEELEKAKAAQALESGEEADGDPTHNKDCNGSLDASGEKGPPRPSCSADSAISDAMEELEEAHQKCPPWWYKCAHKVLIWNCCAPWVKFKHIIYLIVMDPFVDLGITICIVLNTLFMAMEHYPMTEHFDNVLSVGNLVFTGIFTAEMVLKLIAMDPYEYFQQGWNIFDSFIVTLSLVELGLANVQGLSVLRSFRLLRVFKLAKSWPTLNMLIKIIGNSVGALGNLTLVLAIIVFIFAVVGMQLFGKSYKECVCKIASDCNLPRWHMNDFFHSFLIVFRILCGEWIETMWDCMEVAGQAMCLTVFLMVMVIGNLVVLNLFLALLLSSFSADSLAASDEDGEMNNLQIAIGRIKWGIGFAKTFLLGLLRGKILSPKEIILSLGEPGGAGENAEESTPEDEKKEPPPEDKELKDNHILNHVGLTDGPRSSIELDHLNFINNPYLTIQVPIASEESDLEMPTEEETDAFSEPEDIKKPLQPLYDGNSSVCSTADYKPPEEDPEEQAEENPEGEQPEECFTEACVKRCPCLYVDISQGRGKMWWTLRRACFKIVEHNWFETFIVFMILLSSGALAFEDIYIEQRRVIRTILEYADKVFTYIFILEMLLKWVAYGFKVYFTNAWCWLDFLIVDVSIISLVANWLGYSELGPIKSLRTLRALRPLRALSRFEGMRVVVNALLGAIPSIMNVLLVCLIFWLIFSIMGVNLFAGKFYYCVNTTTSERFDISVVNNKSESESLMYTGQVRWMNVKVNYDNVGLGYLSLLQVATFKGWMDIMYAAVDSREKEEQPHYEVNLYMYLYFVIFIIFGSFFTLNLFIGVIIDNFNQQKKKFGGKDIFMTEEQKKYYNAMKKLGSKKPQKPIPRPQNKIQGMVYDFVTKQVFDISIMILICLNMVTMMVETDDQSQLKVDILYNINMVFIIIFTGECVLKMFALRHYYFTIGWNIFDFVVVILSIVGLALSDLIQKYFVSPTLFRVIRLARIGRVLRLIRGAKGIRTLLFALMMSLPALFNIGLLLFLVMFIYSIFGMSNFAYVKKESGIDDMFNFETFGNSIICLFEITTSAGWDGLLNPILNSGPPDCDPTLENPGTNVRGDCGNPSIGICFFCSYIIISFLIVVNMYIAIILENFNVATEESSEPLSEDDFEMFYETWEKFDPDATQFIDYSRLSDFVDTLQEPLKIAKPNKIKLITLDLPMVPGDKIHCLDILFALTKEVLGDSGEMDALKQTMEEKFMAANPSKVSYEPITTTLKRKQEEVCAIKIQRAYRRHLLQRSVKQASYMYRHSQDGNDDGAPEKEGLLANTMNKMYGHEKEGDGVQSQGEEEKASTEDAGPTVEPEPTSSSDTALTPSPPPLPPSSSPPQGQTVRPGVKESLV
Experimental: Chinese hamster ovary (CHO) cells stably expressing RSM (μl) sodium channels were studied using the patch clamp whole cell recording technique. CHO cells were grown to confluence in Dulbecco's Modified Eagle's Medium fortified with 15% FBS, 100 U/ml penicillin and 100 μg/ml streptomycin in a humidified incubator at 37° C. and 5% CO2, with medium changed every 2–3 days. Transfections with the plasmid pZemμ1–2 were performed using the calcium phosphate coprecipitation method. After 24 hr of incubation with DNA, standard culturing conditions were resumed. After 3 days, stably transfected cells were selected with 400 μg/ml geneticin. Transfected cells were grown to confluence and then plated on 35 mm culture dishes for 24–96 hr before the experiment.
An 8900 Dagan patch clamp amplifier with a 1 GΩ 8920 Dagan headstage was used in combination with a Nikon Diaphot inverted microscope. Micromanipulators were used to place the electrode onto the cell. Electrodes were pulled to a resistance of […]. […] Peak currents were determined from these traces. DCUKA dissolved in 0.4% DMSO was added directly to the bath following seal formation and the data are expressed as the % of the initial peak current response obtained before drug addition. […]

SMILES | IC50 [1] | IC50 [2] | effect on [3H]dizocilpine binding [3] | effect on sodium current through VSNaCs (RSM (μl) sodium channels)
COC(=O)c1cc(NC(=O)N(c2ccccc2)c2ccccc2)c2c(Cl)cc(Cl)cc2n1 [DCUK-OMe, (N,N-diphenyl)-4-ureido-5,7-dichloro-2-carboxy-quinoline methyl ester] | 5 µM | 25 µM | concentration-related decrease in [^3H]dizocilpine binding | –
O=C(O)c1cc(NC(=O)N(c2ccccc2)c2ccccc2)c2c(Cl)cc(Cl)cc2n1 [DCUKA, (N,N-diphenyl)-4-ureido-5,7-dichloro-2-carboxy-quinoline] | 22 µM | 76 µM | concentration-related decrease in [^3H]dizocilpine binding | use- and voltage-dependent inhibitor of VSNaCs
